Legend:
[1] = system: Isolated Iron-overloaded Rat Hearts; assay: Isolated iron-overloaded rat hearts submitted to ischemia and reperfusion
Description: Rats received an intramuscular injection of 0.25 ml of an iron-dextran solution (100 g iron hydroxide, 99 g dextran, water up to 11) every third day during a 5-week period to achieve a significant iron overload in cardiac tissue. At the end of this treatment, rats were anesthetized with sodium pentobarbital (40 mg/kg) and heparin (1,000 IU/kg) was administered via a femoral vein. Hearts were then removed and rapidly perfused through the aorta according to the technique described by Langendorff [Langendorff, O., Pflügers Arch. 61: 291, 1895] at a constant flow rate of 11 ml/minute. […] At the end of this period, systolic and diastolic ventricular pressures and heart beat rate (HR) were recorded through a pressure transducer linked to the ventricular balloon. Left Ventricular Developed Pressure (LVDP) was calculated by the difference between systolic and diastolic pressure and the product HR×LVDP was taken as an index of oxygen consumption. […] During this 15 minute reperfusion, heart rate, and diastolic and systolic pressures were monitored. Early ventricular fibrillations were analyzed 1 min. after the start of the reperfusion. […]
Mitochondria were classified into Type A (normal), Type B (swollen, unbroken), and Type C (ruptured membranes). […] The results are expressed as percentages.

[2] = system: Hippocampal slices; assay: Lactic acid (acidosis)-induced lipid peroxidation in hippocampal slices; format: cell-based, Sprague-Dawley rats; conditions: 50 μM; 30 mM lactate, pH 5.0, 100 minutes
Description: Hippocampal slices (400 μm thick) were obtained from Sprague-Dawley rats (150-200 g) and collected in preoxygenated (95% O2/5% CO2) Krebs-Ringer phosphate medium (pH 7.4) containing NaCl 120 mM, KCl 5 mM, CaCl2 1.3 mM, MgCl2 1.2 mM, NaPhosphate 16 mM (pH 7.4) and glucose 10 mM. After 15 minutes preincubation in a water bath at 35° C. under agitation, the buffer was replaced with the same buffer (control) or a modified buffer (lactate buffer) containing NaCl 90 mM, KCl 5 mM, CaCl2 1.3 mM, MgCl2 1.2 mM, NaPhosphate 16 mM and lactic acid 30 mM (pH 5.0). […] After 100 minutes, slices were collected and homogenized in 0.9 ml of TCA 5%, whereas 0.35 ml of TCA 5% was added to 0.5 ml of the incubation medium. Lipid peroxidation was measured by adding 0.25 ml of a thiobarbituric acid reagent (TBAR) to 0.85 ml of the TCA extracts and incubating the mixture for 60 minutes at 85-93° C. Lipids were then extracted with 2×0.5 ml 1-butanol by vortexing for 10 seconds, then centrifuging at 2,000 rpm for 10 minutes. The absorbance of peroxidized lipids in the alcohol phase was measured in a spectrophotometer at 532 nm. Data were expressed as nmoles of malondialdehyde (MDA) using authentic MDA to establish a standard curve. Proteins were measured from an aliquot of the TCA extracts using the method of Bradford and the final results were calculated as nmoles MDA formed/mg protein. […]

[3] = system: acidosis-induced mucosal injury; assay: In vitro model for acidosis-induced mucosal injury
[4] = Peroxidase activity, H2O2-dependent oxidation of ABTS; format: biochemical; conditions: C7 with 29 units/ml bovine liver catalase, 10 mM H2O2
Description: Peroxidase activity was assayed by monitoring the hydrogen peroxide-dependent oxidation of 2,2′-azino-bis(3-ethylbenzthiazoline-6) sulfonic acid (ABTS) spectrophotometrically. Standard assay mixtures consisted of 50 mM sodium phosphate, pH 8.1, 0.9% sodium chloride, 0.5 mM ABTS, and H2O2 and salen manganese complex as indicated. Where indicated, 50 mM sodium phosphate buffers of pH 6.0 or pH 7.1 were substituted. Assays were conducted at 27±0.2° C. ABTS oxidation was monitored at 740 or 500 nm to eliminate interference by the salen manganese complexes, many of which absorb in the vicinity of the λmax of oxidized ABTS, and to avoid absorbance values that exceeded the linear range of the spectrophotometer. The amount of oxidized ABTS was estimated using an Δε740 of 20,300 M^−1cm^−1 or an Δε500 of 3400 M^−1cm^−1 calculated based upon the published molar extinction coefficient oat 405 nm (36,800).
Compounds were assayed for SOD as described under Experimental procedures, using cytochrome C as acceptor. The concentration of each compound showing half-maximal activity in this assay is presented. Catalase and peroxidase activities were conducted as described under Experimental Procedures, with 10 μM salen manganese complex. The H2O2 concentration was 10 mM and 0.2 mM in the catalase and peroxidase assays, respectively. Where denoted, “nd” means that the assay was not performed on this compound.
Catalase and peroxidase activities were assayed as described in Example 2. Catalase assays contained 10 μM salen-manganese complex and 10 mM hydrogen peroxide. Peroxidase assays contained 10 μM salen-manganese complex and 0.2 mM hydrogen peroxide. Glucose-glucose oxidase toxicity assays were performed using human dermal fibroblasts as described in Example 2.

Structure (SMILES): [Cl][Mn]1[O]c2ccccc2C=NCCN=Cc2ccccc2[O]1 [Compound C7]
- protection of hearts from ischemia/reoxygenation damage, functionally and structurally ([1]; C7 50 μM): effectively protected hearts
- Mitochondria Type B (swollen, unbroken) ([1]; electron microscopy after 15 minute reperfusion): 15.2#□ %
- lactate-induced increase in lipid peroxidation (malondialdehyde) [2]: totally abolished the increase in lipid peroxidation
- protection in acidosis-induced mucosal injury [3]: protective
- total ABTS oxidized in the presence of added catalase [4]: 18 µM

— patent US6900198B2, “Synthetic catalytic free radical scavengers useful as antioxidants for prevention and therapy of disease” (Eukarion, Inc., priority 1995, dated 2005)
